Assays:
[1] = tested on: colorectal cancer, a pancreatic cancer or a gastric cancer; assay: Clinical study of the association with FOLFOX; assay type: in vivo; details: patients previously treated by FOLFOX
Experimental: A clinical study for testing the association of N-hydroxy-4-{2-[3-(N,N-dimethylamino-methyl)benzofuran-2-ylcarbonylamino]ethoxy}benzamide with FOLFOX is carried out on a maximum of 60 patients. Patients included in the study suffer from a colorectal cancer, a pancreatic cancer or a gastric cancer, and they have been treated by a treatment based on FOLFOX (i.e., alone or in association with other treatments) prior to their inclusion. More precisely, the study consists of 14-day cycles, each of the cycles being performed as follows: N-hydroxy-4-{2-[3-(N,N-dimethylaminomethyl)benzofuran-2-ylcarbonylamino]ethoxy}benzamide (in the form of a hydrochloride salt) is administered for 4 consecutive days whilst oxaliplatin and folinic acid are administered simultaneously on the third day, at the end of infusion of which 5-fluorouracil is administered continuously until the fifth day. […] At the end of a treatment cycle, the toxicity of the regimen associating N-hydroxy-4-{2-[3-(N,N-dimethylaminomethyl)benzofuran-2-ylcarbonylamino]ethoxy}benzamide and FOLFOX is assessed. […] Every four cycles, the efficacy of the treatment is assessed by evaluating the tumour response (CT scan, MRI, etc.). The acceptability profile is also evaluated (especially haematologic and cardiac toxicity).

[2] = tested on: histone deacetylase (HDAC); details: described in WO2004/092115; cited from earlier work
cultured tumour cells = cultured tumour cells in vitro; Buggy et al. 2006; cited from earlier work
xenograft models = details: in vivo, Buggy et al. 2006; cited from earlier work

In the case of `CN(C)Cc1c(C(=O)NCCOc2ccc(C(=O)NO)cc2)oc2ccccc12` [N-hydroxy-4-{2-[3-(N,N-dimethylaminomethyl)benzofuran-2-ylcarbonylamino]ethoxy}benzamide], the “efficacy of the treatment (tumour response) of the association with FOLFOX” value ([1]; hydrochloride salt p.o., 160-360 mg daily, 4 consecutive days, in association with FOLFOX, 14-day cycles) is listed as “promising”, the “reversal of resistance to FOLFOX” value [1] is listed as “reverse the resistance to FOLFOX” and the HDAC inhibition [2] is listed as “powerful histone deacetylase (HDAC) inhibitor”. The apoptosis (cultured tumour cells) was “induces apoptosis”, the cell growth (cultured tumour cells) was “inhibition of cell growth” and the tumour growth (xenograft models) was “inhibits tumour growth”.
